Experimental data reported in patent US12138320B2, “Composition and methods for tumor imaging and treatment” (The University of Chicago, priority 2020, dated 2024).

Assays:
[1] = tested on: other detected serine hydrolase targets; experiment: Family-wide gel-based profiling of serine hydrolases in MDA-MB231 and PC3 cells (selectivity); assay type: cell-based, human; settings: live cells
Experimental: Proteome Preparation: Human PC3 and MDA-MB231 cells were grown in Roswell Park Memorial Institute (RPMI) medium and Dulbecco's Modified Eagle Medium (DMEM), respectively, supplemented with 10% fetal bovine serum (FBS) and 2 mM L-glutamine, and cultured in a humidified 5% CO2 incubator at 37° C. Cells were washed twice with phosphate buffered saline (PBS, pH 7.5), collected by scraping, resuspended in 0.2 ml PBS, sonicated, and fractionated via centrifugation (100,000×g, 45 min) into a pellet (containing membrane proteins) and supernatant (containing soluble proteins). […] Protein concentrations were determined using a Bradford protein assay kit (Bio-Rad, Hercules, California, United States of America)). […]
Gel-based Activity Profiling: Cell lysates were treated with 1 μM fluorophosphonate-rhodamine (FP-rho) for 30 min at room temperature (50 μL total reaction volume). Reactions were quenched with one volume of standard 4× sodium dodecyl sulfate/polyacrylamide gel electrophoresis (SDS/PAGE) reducing sample buffer, resolved on 10% acrylamide SDS/PAGE gels, and visualized in-gel with a fluorescence scanner sold under the tradename CHEMIDOC™ MP (Bio-Rad, Hercules, California, United States of America). Densitometric quantification of band intensities were used to calculate the percent inhibition via JW199. […]

[2] = tested on: MDA-MB231 human breast cancer xenografts; experiment: PET/CT imaging and ex vivo biodistribution in mice bearing MDA-MB231 xenografts; design: species or system mouse
Experimental: In vivo microPET/CT imaging: All imaging was performed by the Integrated Small Animal Imaging Research Resource (iSAIRR) at the University of Chicago (Chicago, Illinois, United States of America) on a β-Cube and X-Cube (Molecubes NV, Ghent, Belgium). Athymic nude mice (males and females, aged 6 to 8 weeks; HSD strain, Harlan-Envigo, Indianapolis, Indiana, United States of America) were anesthetized via inhalation with 1.5-2% isoflurane and injected with approximately 150 μCi (5.55 Megabecquerel (MBq)) of [^18F]JW199 in 150 μL of physiologic saline through the lateral tail vein, followed by awake incubation for 1 hour and 45 minutes. MicroCT images were acquired using the general purpose protocol, with energy of 50 KeV and a tube current of 100 μA. Respiration rate and body temperature of the animal were constantly monitored during the entire scanning period with the p-Cube and X-Cube onboard monitoring system. […]
Dynamic reconstruction was performed using a three-dimensional OSEM algorithm with 400 μm isometric voxel size. […] 3D regions of interest (ROIs) were drawn and standardized uptake values (SUVs) and percent injected dose per cubic centimeter of tissue (% ID/cc) were calculated for each ROI and time point. % ID/cc was calculated as a ratio of tissue radioactivity concentration (mCi/g) at time of scan to total injected activity (millicurie (mCi)) at time of scan. […]

[3] = tested on: PC3 prostate cancer xenografts; experiment: PET/CT imaging and ex vivo biodistribution in mice bearing PC3 xenografts; design: species or system mouse; settings: ex vivo quantitation, 3 hours after injection, prostate cancer model
Excerpt: FIGS. 12A-12C: In vivo prostate cancer tumor images with fluorine-18-labeled 2-isopropylphenyl-(4-(2-fluorethoxy)phenethyl)carbamate ([^18F]JW199) tracer. FIG. 12A is a representative whole-body positron emission tomography-computed tomography (PET-CT) image of a PC3 prostate cancer cell tumor-bearing mouse and tumor boundary image in inset. Image is representative of n=4 mice. B. FIG. 12B is a graph showing the ex vivo biodistribution of [^18F]JW199 in mice bearing PC3 xenografts. Quantification of radiotracer signal in the indicated tissues 3 hours after injection of 150 microcurie (μCi) of radiotracer. Data are means percentage injected dose per cubic centimeter (% ID/cc)±standard deviation (SD) (n=4 male mice). FIG. 12C is a graph of the glyceraldehyde-3-phosphate dehydrogenase (GAPDH)-normalized neutral cholesterol ester hydrolase 1 (NCEH1) protein levels in the edge (red) and inside (blue) areas of tumor xenografts, ***p<0.001 as determined by Student's t-test. […]
In vivo microPET/CT imaging: All imaging was performed by the Integrated Small Animal Imaging Research Resource (iSAIRR) at the University of Chicago (Chicago, Illinois, United States of America) on a β-Cube and X-Cube (Molecubes NV, Ghent, Belgium). […] Respiration rate and body temperature of the animal were constantly monitored during the entire scanning period with the p-Cube and X-Cube onboard monitoring system. […]

SMILES: CC(C)c1ccccc1OC(=O)NCCc1ccc(OCC[18F])cc1 [[^18F]JW199, fluorine-18-labeled 2-isopropylphenyl-(4-(2-fluoroethoxy)phenethyl)carbamate]
- selectivity over other detected serine hydrolase targets [1]: greater than 1,000 fold
- radiotracer accumulation in tumor ([2]; 150 μCi i.v., dynamic PET/CT): radiotracer accumulation in breast tumor xenograft cells
- total radioactivity in bulk tumor tissue relative to surrounding muscle ([2]; ex vivo quantitation, 3 hours after injection, breast cancer model): higher total radioactivity
- total radioactivity in bulk tumor tissue relative to surrounding muscle [3]: higher total radioactivity
